Measurements from patent US10976318B2, “Method of treating cancer using a caspase-4 inhibitor” (IMMUNEPHARMA S.R.L., priority 2014, dated 2021).
*: point of attachment. CH2Cl = ClC*

Tested on: lung tumor lesion in C57Bl/6 mice treated with NMU
Experiment: Murine model of lung carcinoma induced by intratracheal NMU; tumor lesion area/total lung area
Format: in vivo, mouse
Settings: C57Bl/6 mice exposed to NMU, caspase-1 inhibitor i.p.; *p<0.05, **p<0.01; FIG. 6C
Protocol: Murine Model of Lung Carcinoma.
C57Bl/6 mice (Harlan Laboratories, Italy) and 129Sv mice, and caspase-1 and 11 knockout mice (Charles River Laboratories, Italy) (females of 6-8 weeks) were subjected to intratracheal (i.t.) instillation of a carcinogen, N-nitroso-N-methyl-urea (NMU), having alkylating and mutagenic activities (Damiani et al., 2008). NMU was administered three times every 7 days, according to the following administration schedule and dosage: day 0, 50 μg/mouse; day 8, 10 μg/mouse and day 15, 10 μg/mouse (FIG. 1). In some experiments, an anti-IL-1α antibody (Ab) (2 μg/[…] i.p.; eBioscience, USA), or a caspase-1 inhibitor (Ac-Y-VAD-cmk: 10 ug/mouse i.p., Sigma Aldrich, USA), or an anti-caspase-11 antibody (10 ug/mouse, i.p.; Santa Cruz, USA) were administered to C57Bl/6 mice treated with NMU. The animals were sacrificed at different time points (3-7-30 days from the first NMU administration), according to the scheme shown in FIG. 1. The tumor lesion was expressed as the tumor lesion area/total lung area ratio. […]
The results are expressed as mean±SEM. The differences between the various groups were statistically analyzed using One Way ANOVA analysis and/or Student's t test, as appropriate. […]

Row | Substance | tumor lesion, effect in words
1 | Ac-Tyr-Val-Ala-Asp-CHO (Ac-YVAD-aldehyde) [y-VAD-CHO, N. sc-3069] | reduced
2 | Ac-Tyr-Val-Ala-Asp-Chloromethylketone (Ac-YVAD-CH2Cl) [Ac-Y-VAD-cmk, N. SML-0429] | reduced
